Assay results published in patent US20020077322A1, “Protection of neurons against glutamate-induced damage in glaucoma and other conditions” (priority 2000, published 2002).

What was measured:
Type in all cases: in vivo, C57/BL6 mice
retinal ganglion cells [1] = assay: Effect of cannabinoid antagonists on WIN protection of NMDA-treated retinal ganglion cells (Example 3); conditions: preliminary tests
Method: A topical application of 0.5% proparacaine hydrochloride was administered prior to intravitreal injections. A small incision was made with a 22-gauge needle in the dorsal limbus, through the conjunctiva and sclera. A Hamilton syringe was passed through this incision at a 40 to 50 degree angle to the equator to administer the solution. All eyes were injected with 0.5 μl of solution. All procedures were performed under microscopy. […] These mice were not used in the analysis.
Tissue Preparation: Flat mount preparations of the retinae and counts of cells in the retinal ganglion cell layers were performed to evaluate cell loss. Ten days after intravitreal injections, animals were euthanized by an intraperitoneal overdose injection of pentobarbital. Animals were immediately perfused with 4% paraformaldehyde, and the eyes enucleated. The retinae were dissected and mounted onto gelatinized slides, ganglion cell layer up. […]

retinal ganglion cells [2] = assay: Intravitreal NMDA with or without co-injected WIN 55,212-2; counts of surviving cells in the retinal ganglion cell layer (Example 1)
Method: (§1) Experiments were performed on adult C57/BL6 mice of an average of 4 months, weighing 15-25 g. Animals were given food and water ad libitum. All studies were conducted in accordance with the principles and procedures outlined in the National Institute of Health (NIH) Guide for the Care and Use of Laboratory Animals.
Three sterile solutions were administered by intravitreal injection: balanced saline solution, NMDA (Sigma) and NMDA plus WIN 55,212-2 (Sigma). The NMDA solution was comprised of 320 mM NMDA in balanced saline solution (net of 160 nmol of NMDA injected per eye). The WIN solution contained 0.5 mM WIN 55,212-2 in the NMDA solution using a DMSO vehicle (less than 0.1% of solution) to carry WIN (net of 0.25 nmol of WIN injected per eye).
(§2) Intravitreal Injections Mice were anaesthetized by intraperitoneal injection of 0.017 ml/g body weight of a solution containing 1.75% tribromoethanol and 1.75% tertiary amyl alcohol. A topical application of 0.5% proparacaine hydrochloride was administered prior to intravitreal injections. A small incision was made with a 22-gauge needle in the dorsal limbus, through the conjunctiva and sclera. A Hamilton syringe was passed through this incision at a 40 to 50 degree angle to the equator to administer the solution. All eyes were injected with 0.5 μl of solution. All procedures were performed under microscopy. Occasionally this procedure produced cataracts in mice (less than 5%) due to damage to the lens with the syringe. These mice were not used in the analysis.
(§3) Tissue Preparation Flat mount preparations of the retinae and counts of cells in the retinal ganglion cell layers were performed to evaluate cell loss. Ten days after intravitreal injections, animals were euthanized by an intraperitoneal overdose injection of pentobarbital. Animals were immediately perfused with 4% paraformaldehyde, and the eyes enucleated. The retinae were dissected and mounted onto gelatinized slides, ganglion cell layer up. Several radial cuts were made at the periphery, and the surface was cleared and flattened with a fine brush (camel hair, size 0). The flat mounted retinae were immersed overnight in a solution containing 10% formaldehyde and 90% alcohol. The sections were subsequently dehydrated and stained with 0.5-1% cresyl violet and enclosed with coverslips.
Morphometric Analysis (Quantification of Cell Loss in the Retinal Ganglion Cell Layer) The ganglion cell layer was imaged at 400×and cells were counted within 70×70 um grids. […] Quandrant counts from each retina were averaged to give the value for each eye. Morphologically distinguishable glial cells and vascular endothelial cells were excluded from the cell count, but no attempt was made to distinguish between ganglion and amacrine cells. […]

retinal ganglion cells [3] = assay: Topical WIN55212-2 after intravitreal NMDA; counts of surviving retinal ganglion cells (Example 2)
Method: as §1
Two sterile solutions were administered by intravitreal injection: balanced saline solution, and NMDA (Sigma). The NMDA solution was comprised of 320 mM NMDA in balanced saline solution (net of 160 nmol of NMDA injected per eye).
as §2, with “Injections:” for “Injections”, “0.5μl” for “0.5 μl”
Topical Application of cannabinoid: A topical application solution of WIN55212-2 (Sigma) was prepared in 2-hydroxypropyl-β-cyclodextrin (Sigma). This solution contained 2.4 mg of WIN55212-2 in 1 ml 2-hydroxypropyl-β-cyclodextrin.
10 μl of this WIN55212-2 solution was applied to the anterior surface of the eye. In the experiments described, it was applied three times daily on one eye only. The applications of the WIN solution began one day after the NMDA injections were made, to allow time for the surface of the eye to heal, and the topical applications were made for 9 days. Thus, while each eye received the NMDA injections, only one eye of each animal had the WIN solution applied onto it.
as §3, with “Preparation:” for “Preparation”, “The flat mounted retinae were immersed overnight in a solution containing 10% formaldehyde and 90% alcohol. The sections were subsequently dehydrated and stained with 0.5-1% cresyl violet and enclosed with coverslips.” left out
Morphometric Analysis: The ganglion cell layer was imaged at 400X and 630X and cells were counted within 120×120 μm square grids. […]

[4] = intravitreal, 160 nmol NMDA per eye, 10 day period, vs saline eye
[5] = single intravitreal application, 0.25 nmol WIN per eye with NMDA, 10 days

## COc1ccc(C(=O)c2c(C)n(CCN3CCOCC3)c3cc(I)ccc23)cc1 [AM 630]
Retinal ganglion cells [1]
  cell counts with CB2 antagonist in combination with WIN and NMDA: same cell counts as the WIN+NMDA eye

## CN[C@H](CC(=O)O)C(=O)O [NMDA, N-methyl-D-aspartate]
Retinal ganglion cells [2]; [4]
  loss of retinal ganglion cells caused by NMDA: 70%
Retinal ganglion cells [3]; [4]
  loss of retinal ganglion cells caused by NMDA: 70%

## Cc1c(C(=O)c2cccc3ccccc23)c2cccc3c2n1[C@H](CN1CCOCC1)CO3 [WIN]
Retinal ganglion cells [2]; FIG. 5 left pair of bars, data taken from Example 1
  increase in number of surviving ganglion cells (NMDA+WIN vs NMDA eye): by a factor of two
Retinal ganglion cells [2]; [5]
  diminution of NMDA-induced ganglion cell loss: 80%
  resulting loss of ganglion cells with NMDA plus WIN: 30%
Retinal ganglion cells [3]; NMDA-treated retina, unilateral topical WIN55212-2
  excitotoxic damage in ganglion cell layer, photomicrographs (FIG. 4): ameliorated the excitotoxic damage
Retinal ganglion cells [3]; WIN applied topically to the other eye, presumably systemic delivery
  retinal ganglion cells protected, contralateral eye (no WIN directly applied): about 25%
Retinal ganglion cells [3]; topical WIN on days 2-9, 10 day period
  resulting loss of ganglion cells, NMDA plus topical WIN, treated eye: 30%
